Laboratory results published in PubChem BioAssay (NCI).
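Five compound concentrations were applied to cells in 96-well plates for 48 hours; endpoints were derived by simple linear interpolation of the resulting dose-response curve. GI50 marks 50% less growth. TGI is the concentration that stops growth completely.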

How the values were obtained:
Test in all cases: NCI anticancer screen, dose series, 48 h
[1] = test system: TK-10 renal
[2] = test system: OVCAR-4 ovarian
[3] = test system: OVCAR-8 ovarian
[4] = test system: ACHN renal
[5] = test system: HS 578T breast
[6] = test system: MDA-MB-435
[7] = test system: SNB-75 CNS
[8] = test system: MDA-MB-468 breast
[9] = test system: SF-268 CNS
[10] = test system: T-47D breast
[11] = test system: MALME-3M melanoma
[12] = test system: K-562 leukemia
[13] = test system: M14 melanoma
[14] = test system: NCI-H226 lung
[15] = test system: OVCAR-5 ovarian
[16] = test system: SN12C renal
[17] = test system: BT-549 breast
[18] = test system: SK-MEL-28 melanoma
[19] = test system: NCI-H460 lung
[20] = test system: PC-3 prostate
[21] = test system: SW-620 colon
[22] = test system: EKVX NSCLC
[23] = test system: HL-60(TB) leukemia
[24] = test system: U251 CNS
[25] = test system: IGROV1 ovarian
[26] = test system: A549 NSCLC
[27] = test system: UO-31 renal
[28] = test system: KM12 colon
[29] = test system: SK-OV-3 ovarian
[30] = test system: MDA-MB-231 breast
[31] = test system: RXF 393 renal
[32] = test system: CAKI-1 renal
[33] = test system: COLO 205 colon
[34] = test system: HCC-2998 colon
[35] = test system: HCT-15 colon
[36] = test system: SNB-19 CNS
[37] = test system: RPMI-8226 leukemia
[38] = test system: NCI/ADR-RES ovarian
[39] = test system: HOP-62 NSCLC
[40] = test system: SK-MEL-5 melanoma
[41] = test system: SK-MEL-2 melanoma
[42] = test system: OVCAR-3 ovarian
[43] = test system: HOP-92 NSCLC
[44] = test system: NCI-H522 lung
[45] = test system: NCI-H23 lung
[46] = test system: CCRF-CEM leukemia
[47] = test system: LOX IMVI melanoma
[48] = test system: MOLT-4 leukemia
[49] = test system: UACC-257 melanoma
[50] = test system: SF-539 CNS
[51] = test system: SR leukemia
[52] = test system: UACC-62 melanoma
[53] = test system: A498 renal
[54] = test system: MCF7 breast
[55] = test system: HCT-116 colon
[56] = test system: SF-295 CNS
[57] = test system: 786-0 renal
[58] = test system: DU-145 prostate
[59] = test system: HT29 colon

`O=C(CNc1nc(-c2ccccc2)cs1)Nc1ccc(Cl)cc1` was tested, and the GI50 [1] was 1070 nM, the TGI [1] was 2520 nM and the GI50 [2] was 1340 nM. The TGI [2] was 3170 nM, the GI50 [3] was 989 nM and the GI50 [4] was 385 nM. For the same compound, the TGI [4] was 846 nM, the GI50 [5] was 1270 nM and the TGI [5] was > 91300 nM. The GI50 [6] was 559 nM, the TGI [6] was 2100 nM and the GI50 [7] was 628 nM. It also gave a TGI [7] of 5900 nM, a GI50 [8] of 394 nM and a TGI [8] of 877 nM. It also gave a GI50 [9] of 1880 nM, a TGI [9] of 10100 nM and a GI50 [10] of 337 nM. For the same compound, the TGI [10] was 2440 nM, the GI50 [11] was 507 nM and the TGI [11] was 1200 nM. For the same compound, the GI50 [12] was 224 nM, the TGI [12] was > 100000 nM and the GI50 [13] was 341 nM. The TGI [13] was 1680 nM, the GI50 [14] was 651 nM and the TGI [14] was 2940 nM. It also gave a GI50 [15] of 1030 nM, a TGI [15] of 2410 nM and a GI50 [16] of 465 nM. The TGI [16] was 1230 nM, the GI50 [17] was 216 nM and the TGI [17] was 643 nM. The GI50 [18] was 1080 nM, the TGI [18] was 2430 nM and the GI50 [19] was 936 nM. It also gave a TGI [19] of 3120 nM, a GI50 [20] of 519 nM and a TGI [20] of 2610 nM. It also gave a GI50 [21] of 683 nM, a TGI [21] of 1910 nM and a GI50 [22] of 530 nM. It also gave a TGI [22] of 1200 nM, a GI50 [23] of 304 nM and a TGI [23] of 2260 nM. The GI50 [24] was 339 nM, the TGI [24] was 813 nM and the GI50 [25] was 554 nM. For the same compound, the TGI [25] was 1750 nM, the GI50 [26] was 1070 nM and the TGI [26] was 2480 nM. The GI50 [27] was 654 nM, the TGI [27] was 2030 nM and the GI50 [28] was 828 nM. It also gave a TGI [28] of 2530 nM, a GI50 [29] of 1390 nM and a TGI [29] of 4540 nM. It also gave a GI50 [30] of 480 nM, a TGI [30] of 1390 nM and a GI50 [31] of 514 nM. For the same compound, the TGI [31] was 1170 nM, the GI50 [32] was 466 nM and the TGI [32] was 1890 nM. It also gave a GI50 [33] of 1580 nM, a TGI [33] of 3230 nM and a GI50 [34] of 835 nM. It also gave a TGI [34] of 2180 nM, a GI50 [35] of 315 nM and a TGI [35] of 800 nM. For the same compound, the GI50 [36] was 777 nM, the TGI [36] was 2130 nM and the GI50 [37] was 331 nM. For the same compound, the TGI [37] was 2720 nM, the GI50 [38] was 213 nM and the TGI [38] was 533 nM. The GI50 [39] was 1350 nM, the TGI [39] was 2730 nM and the GI50 [40] was 440 nM. For the same compound, the TGI [40] was 851 nM, the GI50 [41] was 646 nM and the TGI [41] was 2070 nM. For the same compound, the GI50 [42] was 552 nM, the TGI [42] was 1310 nM and the GI50 [43] was 461 nM. It also gave a TGI [43] of 2130 nM, a GI50 [44] of 152 nM and a TGI [44] of 305 nM. For the same compound, the GI50 [45] was 407 nM, the TGI [45] was 1020 nM and the GI50 [46] was 243 nM. For the same compound, the TGI [46] was > 21500 nM, the GI50 [47] was 167 nM and the TGI [47] was 616 nM. The GI50 [48] was 364 nM, the GI50 [49] was 1060 nM and the TGI [49] was 3290 nM. For the same compound, the GI50 [50] was 518 nM, the TGI [50] was 971 nM and the GI50 [51] was 25500 nM. For the same compound, the TGI [51] was > 100000 nM, the GI50 [52] was 496 nM and the TGI [52] was 1640 nM. The GI50 [53] was 2150 nM, the TGI [53] was 5020 nM and the GI50 [54] was 323 nM. For the same compound, the TGI [54] was 860 nM, the GI50 [55] was 196 nM and the TGI [55] was 796 nM. It also gave a GI50 [56] of 708 nM, a TGI [56] of 2150 nM and a GI50 [57] of 217 nM. The TGI [57] was 469 nM, the GI50 [58] was 1540 nM and the TGI [58] was 2920 nM. The GI50 [59] was 348 nM and the TGI [59] was 1320 nM.
